Assay results taken from patent publication US20080280761A1 (priority 2005, published 2008).
Like-named read-outs stand apart in the source and are kept apart here.

Key:
weeds = settings: in vivo; cited from earlier work
[1] = test system: main weeds in the cropland; format: in vivo
[2] = test system: thylakoid membrane, electron transfer reaction of two photosystems, especially photosystem II; format: biochemical
Striga hermonthica = settings: 10-4 mol/L; cited from earlier work

SMILES: O=C(O)CNCP(=O)(O)O [glyphosate]
- time to kill the weeds (weeds): at least 10 days

SMILES: CC(=O)C1=C(O)C(CC(C)C)NC1=O (stereo not shown) [iso-tenuazonic acid]
- time to distinct toxic symptom ([1]; sprayed on the stems and leaves, 5 to 800 μg/g): five
- time to obvious injuried symptom ([1]; stem or leaf treatment): 12 h
- apparent quanta efficiency [2]: obviously reduce
- electron transfer reaction of two photosystems, especially photosystem II [2]: inhibiting
- photosynthetic oxygen evolution rate [2]: obviously reduce
- inhibitory effect on the seed germination (Striga hermonthica): around 50%

SMILES: CCC(C)C1NC(=O)C(C(C)=O)=C1O (stereo not shown) [tenuazonic acid]
- time to distinct toxic symptom ([1]; in vivo): five
- time to obvious injuried symptom ([1]; in vivo): 12 h
- apparent quanta efficiency [2]: obviously reduce
- electron transfer reaction of two photosystems, especially photosystem II [2]: inhibiting
- photosynthetic oxygen evolution rate [2]: obviously reduce
- inhibitory effect on the seed germination (Striga hermonthica): around 50%
